Test results: patent US7932287B2, “Therapeutic compositions and uses” (ChemGenes Corporation, priority 2004, dated 2011)
Like-named read-outs stand apart in the source and are kept apart here.

Key:
[1] = system: dogs with Batten Disease (Juvenile Neuronal Ceroid Lipofuscinosis); details: cited from earlier work
[2] = system: child who was afflicted with LINCL; test: Exogenous L-carnitine given to the LINCL child for over three years; format: in vivo, human
Experimental: (§1) Child had been taking the supplements/vitamins listed in Appendix B for about three years before the start of TML therapy. In addition, they had been taking clonazepam (5-(2-chlorophenyl)-1,3-dihydro7-nitro-2H-1,4-benzodiazepin-2-one) which is sold under the trade name Klonopin by F. Hoffmann-La Roche Ltd. (Basel, Switzerland) for control of constant Myoclonic seizures for about the same time according to the following daily dosage: (a) at waking: ½ of one 0.5 mg tablet, (b) Every four hours after waking, ¼ of one 0.5 mg tablet, (c) At bedtime: ½ of one 0.5 mg tablet. They also took one (1) 25 mg capsule of nitrofurantoin macrocrystals (sold under the name Macrodantin by Procter & Gamble Pharmaceuticals, Cincinnati Ohio) once per day.
In summary, L-carnitine plays a key and critical role in enhancing fat metabolism. Reports attest to the fact that L-carnitine works by transporting fatty acids to be burned for fuel, increasing both energy supply and lean muscle mass. […] This contrasts with the apparent need in Late Infantile Neuronal Ceroid Lipofuscinosis (LINCL-one form of Batten Disease) of the correct operation of the endogenous production of L-carnitine. […] This also was not observed by the parents of the child who was afflicted with LINCL (discussed later).

[3] = system: child diagnosed with Late Infantile Neuronal Ceroid Lipofuscinosis (LINCL); test: Blood work (standard clinical blood tests) before and after TML therapy; format: in vivo, human; parameters: Glutamine / Taurine / Carnitine, Total / Carnitine, Esthers / Alanine / Carbon Dioxide / BUN / Hgb / HCT / RDW / ABS Lymphocytes / Glycine: unit not given here
Experimental: as §1
(§2) “Baseline” blood work was done after an overnight fast on the morning of Nov. 19, 2003. Child received their usual supplements/vitamins, clonazepam, and macrodantin. TML, as synthesized in Example 1 was given to the patient (5 mg of TML per day for a […], ending Dec. 28, 2003). Between Dec. 28, 2003 and Jan. 24, 2004 we gave an alternating daily dose of 5 mg/day and 10 mg/day. On Jan. 24, 2004 and till the “new” blood work was done on Jan. 29, 2004, the patient received 10 mg/day by usually taking 5 mg of TML with breakfast and 5 mg of TML with dinner. They received 5 mg per dose during the duration of the experiment. In other words, they received TML once per day on days that they received 5 mg, and TML twice per day on days that they received 10 mg of TML. The TML was administered in powder form intermixed with their food.
The child's bloodwork results are in table 1, below and the empirical nature of the child's improvement is evidenced by the follow up blood results. These blood tests were standard clinical tests carried out at Children's Hospital of Pittsburgh.

L-carnitine biosynthesis [4] = details: rats; increased amount of the intermediate in the bloodstream; cited from earlier work
[5] = system: child diagnosed with Late Infantile Neuronal Ceroid Lipofuscinosis (LINCL); test: Physical condition of the patient after 9 weeks of TML therapy (parents' and physicians' observations); format: in vivo, human; details: TML 5 mg-30 mg per day after Jan. 29, 2004, through January 2005
[6] = system: child diagnosed with Late Infantile Neuronal Ceroid Lipofuscinosis (LINCL); test: as above; format: in vivo, human
Experimental: as §1, §2
Child's General Physical Condition Before the Start of TML Therapy (Based on Parents' Observations):
(The Physical Appearance of the Patient After the Stated 9 Weeks of TML Therapy.)

L-carnitine biosynthesis [7] = details: human infants & adults; increased amount of the intermediate in the bloodstream; cited from earlier work
[8] = exogenous carnitine, dogs with Juvenile Neuronal Ceroid Lipofuscinosis
[9] = Jan. 29, 2004, after TML, baseline high
[10] = Jan. 29, 2004, after TML, baseline normal

Which “Need for endogenous production of L-carnitine” value ([1]; exogenous L-Carnitine to dogs with Batten Disease) does the source give for C[N+](C)(C)C[C@H](O)CC(=O)[O-] [L-carnitine, L-b-hydroxy-g-n-trimethylaminobutyric acid] here?
The value was “not ameliorated”.

What about the “Function of the dogs” value [1, 8] of the same compound?
The value was “more functional”.

And the “Life span versus untreated dogs (lived longer)” value [1, 8]?
The value was 10%.

What about the “Metabolic changes or marked outward observations of their condition” value [2] of the same compound?
The value was “without significant metabolic changes or marked outward observations of their condition”.

What does the source list for C[N+](C)(C)CCCCC(N)C(=O)[O-] [TML, N-6-trimethyl-L-lysine]?
Hgb ([3]; Jan. 29, 2004, after 9 weeks of TML 5-10 mg/day in food, overnight fast, baseline Nov. 19, 2003: 14.4 (high)): 14; BUN ([3]; Jan. 29, 2004, after 9 weeks of TML 5-10 mg/day, baseline 2 (low), 6 is norm): 5; ABS Lymphocytes ([3]; Jan. 29, 2004, after 9 weeks of TML 5-10 mg/day, baseline 2.2 (low)): 2.5; Carnitine, Esthers ([3]; Jan. 29, 2004, after 9 weeks of TML 5-10 mg/day, baseline 7 (normal)): 10; RDW ([3]; Jan. 29, 2004, after 9 weeks of TML 5-10 mg/day, baseline 11.5): 12.3; Taurine ([3]; Jan. 29, 2004, after 9 weeks of TML 5-10 mg/day, baseline 24 (high)): 19; Carbon Dioxide ([3]; Jan. 29, 2004, after 9 weeks of TML 5-10 mg/day, baseline 32 (high)): 22; Carnitine, Total ([3]; Jan. 29, 2004, after 9 weeks of TML 5-10 mg/day, baseline 40 (normal)): 43; HCT ([3]; Jan. 29, 2004, after 9 weeks of TML 5-10 mg/day, baseline 42 (high)): 40.3; Glycine ([3]; Jan. 29, 2004, after 9 weeks of TML 5-10 mg/day, baseline 50 (high)): 25; AST ([3]; Jan. 29, 2004, after 9 weeks of TML 5-10 mg/day, baseline 60 (high), 40 is norm): 50; Alanine ([3]; Jan. 29, 2004, after 9 weeks of TML 5-10 mg/day, baseline 87 (high)): 47; Glutamine ([3]; Jan. 29, 2004, after 9 weeks of TML 5-10 mg/day, baseline 99 (high)): 70; Platelets ([3]; Jan. 29, 2004, after 9 weeks of TML 5-10 mg/day, baseline 586 (high), 369 norm): 461; Alanine, Clinical Range [3, 9]: normal; Carbon Dioxide, Clinical Range [3, 9]: normal; Glutamine, Clinical Range [3, 9]: normal; Glycine, Clinical Range [3, 9]: normal; HCT, Clinical Range [3, 9]: normal; Hgb, Clinical Range [3, 9]: normal; RDW, Clinical Range [3, 9]: normal; Taurine, Clinical Range [3, 9]: normal; AST, Clinical Range ([3]; Jan. 29, 2004, after TML, baseline high, 40 is norm): high; Platelets, Clinical Range ([3]; Jan. 29, 2004, after TML, baseline high, 369 norm): high; ABS Lymphocytes, Clinical Range ([3]; Jan. 29, 2004, after TML, baseline low): normal; BUN, Clinical Range ([3]; Jan. 29, 2004, after TML, baseline low, 6 is norm): (low); Carnitine, Esthers, Clinical Range [3, 10]: normal; Carnitine, Total, Clinical Range [3, 10]: normal; Elevation of serum amino acids (examining physician's comment) ([3]; Jan. 29, 2004, after TML, baseline: alanine elevated, glutamine increased): No significant elevation of serum Amino Acids; Increase of the production of L-carnitine (L-carnitine biosynthesis [4]): 100 fold; Condition on continued TML [5]: remained stable; Eye movement and pupillary response ([6]; after 9 weeks of TML therapy): more eye movement and even the emergence of “purposeful” eye movement and a faster pupillary response; Hypertonicity of legs ([6]; after 9 weeks of TML therapy): still “hypertonic”; Swallowing ([6]; after 9 weeks of TML therapy): very much improved, almost normal; Hypertonicity of arms, hands and fingers ([6]; after 9 weeks of TML therapy, also observed by a physiatrist and neurologist): notable reduction; Cyanosis symptoms in the hands and feet ([6]; after 9 weeks of TML therapy, before: chronically cyanotic): virtually no cyanosis; Bowel movements ([6]; after 9 weeks of TML therapy, before: two or three days without bowel movement, enema needed): moving their bowels on their own one to three times a day; Insomnia / sleeping through the night ([6]; after approximately the first two weeks of TML, before: sleep interrupted 1 to 3 times per night): The insomnia was gone; Hyperammonemic condition (blue hands and feet) ([6]; after the administration of TML): amelioration of the hyperammonemic condition; Metabolic and outward, observable changes to their condition ([6]; exogenous TML to the LINCL child): yielded significant metabolic and outward, observable changes to their condition; Full body jerk (Myoclonus) elicited by touch ([6]; neurologist's office visit Jan. 30, 2004): no longer elicited a full body jerk; Myoclonic seizures ([6]; neurologist's office visit Jan. 30, 2004, clonazepam continued): markedly reduced in severity and in number; Increase of the production of L-carnitine (L-carnitine biosynthesis [7]): 3 fold

Which results are given for C[N+](C)(C)CCCC(=O)[O-] [g-butyrobetaine, 4-N-trimethylaminobutyrate, reference compound]?
Increase of the production of L-carnitine (L-carnitine biosynthesis [4]): 100 fold; Increase of the production of L-carnitine (L-carnitine biosynthesis [7]): 3 fold
